Test results as given in patent US20250304623A1, “PEPTIDES FOR INTRACELLULAR DELIVERY” (UNIVERSIDADE DE SANTIAGO DE COMPOSTELA, priority 2022, published 2025).
*: point of attachment. NHNH2 = NN*

How the values were obtained:
Assay type in all cases: cell-based
ARPE19 cells = experiment: RLuc pDNA delivery, robotic library screening, ARPE19
HCT116 cells = experiment: RLuc pDNA delivery, robotic library screening, HCT116
[1] = test system: A549 cells expressing EGFP; experiment: EGFP-targeting siRNA delivery (GFP silencing vs siMOCK), A549; settings: A549 cells
Protocol: (§1) To generate an EGFP expressing HeLa cell line, HeLa cells were transfected with EGFP pDNA (pEGFP-C1, Clontech) and stable transfectants were selected with 400 μg/mL of G-418 (Millipore). Green clones were selected by epifluorescence microscopy and tested for EGFP expression stability through several passages. […] All other EGFP-expressing cell lines were obtained in a similar way from parent non-EGFP-expressing cell lines.
(§2) Cells expressing EGFP were seeded in a 96 well plate the day before the experiment at a concentration of 50,000 cell/mL (100 μL/w) in DMEM+10% FBS+1% Gln-Abt. For robotic library screening, the delivery of an EGFP-targeting siRNA (EGFP: enhanced green fluorescent protein, Ambion® Silencer® GFP Positive Control siRNA (siGFP) (AM4626)) in six different cell lines expressing EGFP was performed. […] The mixture was shaken for 30 min at room temperature (rt) before the addition to the cells. The cell medium was aspirated, and cells were washed twice with PBS. Finally, 50 μL of the solution of siRNA/amphiphile complexes were added to the cells and incubated for 4 h. After transfection, the medium was replaced by 100 μL of fresh DMEM supplemented with 10% FBS. The fluorescence knockdown was quantified after 72 h in a plate reader, by comparison with cells transfected with a non-targeting siRNA control (siMOCK, Silencer™ Negative Control No. 1 siRNA (siMOCK) (AM4611)). EGFP knockdown was compared with Lipofectamine® RNAiMAX silencing efficiency (30-60% depending on cell line, defined with a numeric value in the below tables). All experiments were done in triplicate.
(§3) Tables 1-7: RLuc (pDNA) or EGFP (mRNA) expression levels were normalized to Lipofectamine reagents (value=1) and expressed as fold-times signal increase. In the case of siRNA, the siRNA treated cells fluorescence was compared with siMOCK control fluorescence, while Cas9-RNP mediated knockout was measured against the fluorescence of untreated cells. In both siRNA and Cas9-RNP, values are expressed as % fluorescence reduction. Amphiphile concentration was 5 μM in all cases. All experiments were performed in triplicate.
(§4) Tables 20-25 show the mean (triplicates) percentage of GFP-silencing, accounted by fluorescence intensity decrease relative to a non-targeting siRNA (siMOCK) control, measured after the transfection of siRNA by different amphiphiles at different concentrations in a variety of cell lines. Background values, accounted by untreated control cells, were subtracted for processing.

[2] = test system: ARPE19 cells expressing EGFP; experiment: EGFP-targeting siRNA delivery (GFP silencing vs siMOCK), ARPE19
Protocol: as §1, §2, §3, §4

[3] = test system: HepG2 cells expressing EGFP; experiment: EGFP-targeting siRNA delivery (GFP silencing vs siMOCK), HepG2
Protocol: as §1, §2, §3, §4

[4] = test system: ARPE19 cells expressing EGFP; experiment: Cas9-RNP delivery against EGFP (gene editing, plate reader), ARPE19
Protocol: as §1
(§5) Cells expressing EGFP were seeded in a 96 well plate the day before the experiment at a concentration of 50,000 cell/mL (100 μL/w) in DMEM+10% FBS+1% Gln-Abt. For robotic library screening, the delivery of Cas9-RNP against EGFP (RNP designed to knock-out the gene encoding for the enhanced green fluorescent protein (EGFP)) was performed. For RNP assembly, 9.2 μL of crRNA and 9.2 μL of tracrRNA were mixed in 211.6 μL of Nuclease-Free Duplex Buffer (IDT), incubated for 5 min at 95° C. and slowly cooled at rt (see I. Lostalé-Seijo, et al. Peptide/Cas9 nanostructures for ribonucleoprotein cell membrane transport and gene edition, Chem. Sci., 2017). Cas9 protein was dissolved in DMEM at a final concentration of 4 μM and equal volumes of the RNA complex and Cas9 were mixed and incubated for 5 min at rt. 75 μL of the corresponding amphiphile concentrations were added to 5 μL of RNP at 2 μM. The mixture was shaken for 30 min at room temperature before the addition to the cells. The cell medium was aspirated, and cells were washed twice with PBS. Cells were covered with 30 μL of DMEM and 20 μL of the RNP/amphiphile complexes were added to the cells (final peptide concentrations=2.5, 5 and 10 μM; final Cas9-RNP concentration=50 nM) and incubated for 4 h. After the incubation, the medium was replaced by 100 μL of fresh DMEM supplemented with 10% FBS. The total EGFP fluorescence was quantified after 72 h in a plate reader (FIG. 2, Table 1 (right) and Table 6). All experiments were done in triplicate. […]
(§6) Tables 26-31 show the mean (triplicates) percentage of gene editing, accounted by GFP fluorescence intensity decrease (% of reduction), measured after the transfection of Cas9-RNP by different amphiphiles at different concentrations in a variety of cell lines. Background values, accounted by untreated control cells, were subtracted for processing.

[5] = test system: HepG2 cells expressing EGFP; experiment: Cas9-RNP delivery against EGFP (gene editing, plate reader), HepG2
Protocol: as §1, §5, §6

Ac-RK*LRRK*L-NH2 (Ac-RK(NHNH2)LRRK(NHNH2)L-NH2; not fully specified; printed as Ac-RK*LRRK*L-NH2; also: K*2,K*6: native or modified lysine (ε-amide to a linker)) [Peptide 7.2]
mean luminescent intensity (RLuc pDNA) (ARPE19 cells; Dodecanal, 5 μM): 567 RLU | mean luminescent intensity (RLuc pDNA) (ARPE19 cells; Dodecanal, 10 μM): 424 RLU | mean luminescent intensity (RLuc pDNA) (ARPE19 cells; Dodecanal, 15 μM): 462 RLU | mean luminescent intensity (RLuc pDNA) (ARPE19 cells; Myristoleyl, 5 μM): −485 RLU | mean luminescent intensity (RLuc pDNA) (ARPE19 cells; Myristoleyl, 10 μM): −509 RLU | mean luminescent intensity (RLuc pDNA) (ARPE19 cells; Myristoleyl, 15 μM): −568 RLU | mean luminescent intensity (RLuc pDNA) (HCT116 cells; Dodecanal, 5 μM): 911 RLU | mean luminescent intensity (RLuc pDNA) (HCT116 cells; Dodecanal, 10 μM): 729 RLU | mean luminescent intensity (RLuc pDNA) (HCT116 cells; Dodecanal, 15 μM): 684 RLU | mean luminescent intensity (RLuc pDNA) (HCT116 cells; Myristoleyl, 5 μM): −526 RLU | mean luminescent intensity (RLuc pDNA) (HCT116 cells; Myristoleyl, 10 μM): −505 RLU | mean luminescent intensity (RLuc pDNA) (HCT116 cells; Myristoleyl, 15 μM): −526 RLU | percentage of GFP-silencing relative to siMOCK ([1]; Dodecanal, 5 μM): 5% | percentage of GFP-silencing relative to siMOCK ([1]; Dodecanal, 10 μM): 11% | percentage of GFP-silencing relative to siMOCK ([1]; Dodecanal, 15 μM): 8% | percentage of GFP-silencing relative to siMOCK ([1]; Myristoleyl, 5 μM): 8% | percentage of GFP-silencing relative to siMOCK ([1]; Myristoleyl, 10 μM): 14% | percentage of GFP-silencing relative to siMOCK ([1]; Myristoleyl, 15 μM): 16% | percentage of GFP-silencing relative to siMOCK ([2]; Dodecanal, 5 μM): 4% | percentage of GFP-silencing relative to siMOCK ([2]; Dodecanal, 10 μM): 10% | percentage of GFP-silencing relative to siMOCK ([2]; Dodecanal, 15 μM): 20% | percentage of GFP-silencing relative to siMOCK ([2]; Myristoleyl, 5 μM): 14% | percentage of GFP-silencing relative to siMOCK ([2]; Myristoleyl, 10 μM): 28% | percentage of GFP-silencing relative to siMOCK ([3]; Dodecanal, 10 μM): 14% | percentage of GFP-silencing relative to siMOCK ([3]; Dodecanal, 15 μM): 7% | percentage of GFP-silencing relative to siMOCK ([3]; Myristoleyl, 5 μM): −12% | percentage of GFP-silencing relative to siMOCK ([3]; Myristoleyl, 10 μM): −1% | percentage of GFP-silencing relative to siMOCK ([3]; Myristoleyl, 15 μM): −32% | percentage of gene editing, GFP fluorescence intensity decrease (% of reduction) ([4]; Dodecanal, 5 μM): 0% | percentage of gene editing, GFP fluorescence intensity decrease (% of reduction) ([4]; Dodecanal, 10 μM): 0% | percentage of gene editing, GFP fluorescence intensity decrease (% of reduction) ([4]; Myristoleyl, 5 μM): 3% | percentage of gene editing, GFP fluorescence intensity decrease (% of reduction) ([4]; Myristoleyl, 15 μM): −8% | percentage of gene editing, GFP fluorescence intensity decrease (% of reduction) ([5]; Dodecanal, 5 μM): −23% | percentage of gene editing, GFP fluorescence intensity decrease (% of reduction) ([5]; Dodecanal, 10 μM): −56% | percentage of gene editing, GFP fluorescence intensity decrease (% of reduction) ([5]; Dodecanal, 15 μM): −47% | percentage of gene editing, GFP fluorescence intensity decrease (% of reduction) ([5]; Myristoleyl, 5 μM): −42% | percentage of gene editing, GFP fluorescence intensity decrease (% of reduction) ([5]; Myristoleyl, 10 μM): −40% | percentage of gene editing, GFP fluorescence intensity decrease (% of reduction) ([5]; Myristoleyl, 15 μM): −21%
